“Also recorded” adds a separate entry of the source.
Columns and labels:
Assay type in all cases: in vivo, mouse
[1] = system: LKS+ HSPCs; assay: Multidimensional flow cytometry of BM HSPC regeneration after 5FU; settings: 1 mg/kg IP 6 times over 9 days, vs control
Protocol: (§1) Mice were killed by CO2 asphyxiation and femur, tibia and humeri were dissected free of muscle and tendons and then crushed in DMEM using a mortar and pestle. The resulting cell suspension was filtered through a 70-μm filter and washed in PEB (2 mM EDTA, 0.2% BSA in PBS pH 7.4). Spleens were isolated and then minced prior to grinding through a 70-μm filter to generate single cell suspensions. Lineage negative (Lin^−) cells were purified using a biotinylated lineage cell detection cocktail (Miltenyi Biotec). Lineage depleted cells were then stained with streptavidin-Qdot 605 (eBioscience), Horizon V450-conjugated anti-CD117 (BD Biosciences), PECy7-conjugated Sca-1 (BioLegend), Alexa700-conjugated CD34 (BD Biosciences), APC-conjugated CD135 (Flk2) (BioLegend), and PerCP/Cy5.5-conjugated CD16/32 (FcR). Hematopoietic populations were identified as following: LT-HSCs, LKS^+ CD34^−Flk2^−; ST-HSCs, LKS^+ CD34^+ Flk2^−; MPPs, LKS^+ CD34^+ Flk2^+; CMPs, LKS^− CD34^+ FcRlow; GMPs, LKS^− CD34^+ FcR^+; and MEPs, LKS^− CD34^− FcR^− MEPs. DAPI was used to exclude dead cells during flow cytometric analysis. […] The cell cycle status of LKS^+SLAM cells was analyzed using this same strategy. Analysis gates were set based upon the fluorescence minus one (FMO) fluorophore. […]

[2] = system: LKS+ HSPCs and LKS+SLAM cells; assay: Bi-dimensional cell cycle analysis of BM HSPCs after 5FU; settings: D15 after 5FU, 1 mg/kg IP 6 times over 9 days; vs 5FU only
Protocol: as §1

[3] = system: C57BL/6J mice; assay: Blood count recovery after myelosuppressive 5FU chemotherapy
Protocol: The inventors used 5FU (250 mg/kg, 1 i.p.) for C57BL/6J mice, or 5FU 150 mg/kg (1 i.p.) for mice that had been previously transplanted. To assess blood count recovery, the inventors collected peripheral blood (50 μl) into EDTA-coated capillary tubes (Fisher Scientific). Differential blood counts were measured using an automated Bayer ADVIA 120 Multispecies Hematology Analyzer calibrated for murine blood (Bayer HealthCare).
The inventors treated cohorts of mice with 5FU (250 mg/kg) on day 0 and then with either the TGFβ-neutralizing antibody 1D11 (I) (10 mg/kg) or a non-targeted control antibody 13C4 (C) (10 mg/kg) on days 5, 7 and 9. The 1D11 and 13C4 antibodies were generously provided by Genzyme Corp., Framingham, Mass., USA. Mice were treated with 5FU (250 mg/kg) on day 0 and then received either LY364947 (1 mg/kg, i.p.) or an equal volume of PBS six times over a period of 9 days. Hematopoietic reconstitution was followed by monitoring peripheral blood counts and multidimensional flow cytometry on bone marrow and spleen cells, as indicated.

[4] = 5FU 250 mg/kg D0, 1 mg/kg IP 6 times over 9 days, vs PBS

**Q.** Which “expansion of LKS+SLAM cells” value [1] does the source give for `c1ccc(-c2[nH]ncc2-c2ccnc3ccccc23)nc1` [LY364947] here?
**A.** greater expansion

**Q.** What about the “cycling of LKS+ and LKS+SLAM cells” value [2] of the same compound?
**A.** prolonged cycling; also recorded: persisted in cycle

**Q.** What about the PLT recovery [3, 4] of the same compound?
**A.** faster

**Q.** And the WBC recovery [3, 4]?
**A.** faster

**Q.** And the blood counts recovery ([3]; after 5FU, vs vehicle control)?
**A.** recovered blood counts more rapidly
